Where “and” joins values, the source holds several entries; their conditions need not be identical. Equal entries are not always repeated. Toxic doses and inconclusive results are not listed. Cut-off read from the data, not from the text of the source: active = T/C of 150% or more; inactive = T/C below 125%.
Tested on: L1210 leukemia ip in BDF1 mice, survival T/C
Experiment: NCI In Vivo Anticancer Drug Screen. Data for tumor model L1210 Leukemia (intraperitoneal) in B6D2F1 (BDF1) mice
Details: endpoint: mean survival time, higher = longer survival
In short: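 Transplanted-tumor mice were given test agent; controls received vehicle only. Survival readings from the two groups were divided (treated over control).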

[1] = dose: 25.0 mg/kg/injection, schedule: Q01DX009 (ip), vehicle: saline with Tween-80
[2] = dose: 25.0 mg/kg/injection, schedule: Q04DX003 (ip), vehicle: saline with Tween-80
[3] = dose: 50.0 mg/kg/injection, schedule: Q01DX009 (ip), vehicle: saline with Tween-80
[4] = dose: 50.0 mg/kg/injection, schedule: Q04DX003 (ip), vehicle: saline with Tween-80
[5] = dose: 100.0 mg/kg/injection, schedule: Q04DX003 (ip), vehicle: saline with Tween-80
[6] = dose: 100.0 mg/kg/injection, schedule: Q01DX009 (ip), vehicle: saline with Tween-80
[7] = dose: 200.0 mg/kg/injection, schedule: Q04DX003 (ip), vehicle: saline with Tween-80
[8] = dose: 100.0 mg/kg/injection, schedule: Q04DX003 (ip), vehicle: Klucel (hydroxypropylcellulose) (HPC)
[9] = dose: 200.0 mg/kg/injection, schedule: Q04DX003 (ip), vehicle: Klucel (hydroxypropylcellulose) (HPC)
[10] = dose: 400.0 mg/kg/injection, schedule: Q04DX003 (ip), vehicle: Klucel (hydroxypropylcellulose) (HPC)
[11] = dose: 100.0 mg/kg/injection, schedule: Q04DX003 (ip), vehicle: saline
[12] = dose: 200.0 mg/kg/injection, schedule: Q04DX003 (ip), vehicle: saline
[13] = dose: 100.0 mg/kg/injection, schedule: Q01DX009 (ip), vehicle: saline
[14] = dose: 200.0 mg/kg/injection, schedule: Q01DX009 (ip), vehicle: saline
[15] = dose: 400.0 mg/kg/injection, schedule: Q04DX003 (ip), vehicle: saline
[16] = dose: 200.0 mg/kg/injection, schedule: Q01DX009 (ip), vehicle: saline with Tween-80
[17] = dose: 400.0 mg/kg/injection, schedule: Q04DX003 (ip), vehicle: saline with Tween-80
[18] = dose: 100.0 mg/kg/injection, schedule: Q04DX002 (ip), vehicle: Klucel (hydroxypropylcellulose) (HPC)
[19] = dose: 6.25 mg/kg/injection, schedule: Q01DX009 (ip), vehicle: saline
[20] = dose: 12.5 mg/kg/injection, schedule: Q01DX009 (ip), vehicle: saline
[21] = dose: 12.5 mg/kg/injection, schedule: Q04DX003 (ip), vehicle: saline
[22] = dose: 25.0 mg/kg/injection, schedule: Q01DX009 (ip), vehicle: saline
[23] = dose: 25.0 mg/kg/injection, schedule: Q04DX003 (ip), vehicle: saline
[24] = dose: 50.0 mg/kg/injection, schedule: Q01DX009 (ip), vehicle: saline
[25] = dose: 100.0 mg/kg/injection, schedule: Q01DX001 (ip), vehicle: saline
[26] = dose: 200.0 mg/kg/injection, schedule: Q01DX001 (ip), vehicle: saline
[27] = dose: 100.0 mg/kg/injection, schedule: Q04DX002 (ip), vehicle: saline with Tween-80
[28] = dose: 200.0 mg/kg/injection, schedule: Q04DX002 (ip), vehicle: saline with Tween-80

Measured: T/C

O=C(Nc1ccc(C2=NCCN2)cc1)Nc1cc(NC(=O)Nc2ccc(C3=NCCN3)cc2)cc(C(=O)O)c1
inactive: dose: 120.0 mg/kg/injection, schedule: Q01DX Z (ip), vehicle: carboxymethylcellulose (CMC) 106 % of control | dose: 240.0 mg/kg/injection, schedule: Q01DX Z (ip), vehicle: carboxymethylcellulose (CMC) 102 % of control | dose: 250.0 mg/kg/injection, schedule: Q01DX Z (ip), vehicle: water 93 % of control | dose: 500.0 mg/kg/injection, schedule: Q01DX Z (ip), vehicle: water 94 % of control

c1ccc(SSc2ccccc2)cc1
inactive: [1] 89 % of control | [2] 95 % of control | [3] 86 % of control | [4] 103 % of control | [5] 97 % of control

CC(=O)Nc1nc(Cl)c([N+](=O)[O-])c(SCc2ccccc2)n1
inactive: [1] 90 % of control | [3] 93 % of control and 97 % of control | [6] 101 % of control and 104 % of control | [5] 87 % of control | [7] 98 % of control

CC(C)=CCC/C(C)=C/COC(=O)C(CC=C(C)C)CCN1CCN(C)CC1 (centres undefined)
inactive: [8] 104 % of control | [9] 93 % of control | [10] 104 % of control

O=C(C[n+]1ccc(-c2ccccc2)cc1)c1ccccc1
inactive: [11] 109 % of control | [12] 105 % of control

O=C(O)C1=CC(O)C(O)C(O)C1 (centres undefined)
inactive: dose: 100.0 mg/kg/injection, schedule: Q01DX009 (ip), vehicle: saline sonified 103 % of control | [13] 104 % of control | [11] 92 % of control | dose: 200.0 mg/kg/injection, schedule: Q01DX009 (ip), vehicle: saline sonified 86 % of control | [14] 107 % of control | [12] 100 % of control | dose: 400.0 mg/kg/injection, schedule: Q01DX009 (ip), vehicle: saline 106 % of control | [15] 97 % of control

COC1(c2ccc([N+](=O)[O-])o2)OC1(C)C (centres undefined)
inactive: [6] 98 % of control | [5] 113 % of control | [16] 95 % of control | [7] 109 % of control | [17] 96 % of control

CC(=O)/C=C/c1ccc([N+](=O)[O-])cc1
inactive: dose: 100.0 mg/kg/injection, schedule: Q04DX003 (ip), vehicle: saline sonified 95 % of control | dose: 200.0 mg/kg/injection, schedule: Q04DX003 (ip), vehicle: saline sonified 89 % of control | dose: 400.0 mg/kg/injection, schedule: Q04DX003 (ip), vehicle: saline sonified 92 % of control

CCOC(=O)CCC(C(=O)OCC)N(CC(=O)OCC)C(=O)c1ccccc1 (centres undefined)
inactive: [5] 102 % of control | [7] 98 % of control | [17] 96 % of control

CCOC(=O)c1cc2c(=O)c(C(=O)OCC)c[nH]c2o1
inactive: [18] 104 % of control | dose: 400.0 mg/kg/injection, schedule: Q04DX002 (ip), vehicle: Klucel (hydroxypropylcellulose) (HPC) 104 % of control

CC1(C(=O)O)COC(=O)N1 (centres undefined)
inactive: dose: 25.0 mg/kg/injection, schedule: Q04DX002 (ip), vehicle: saline 96 % of control | dose: 50.0 mg/kg/injection, schedule: Q04DX002 (ip), vehicle: saline 104 % of control | dose: 100.0 mg/kg/injection, schedule: Q04DX002 (ip), vehicle: saline 86 % of control

O=C(/C=N/O)/C=N/O (tested in a mixture with another compound)
inactive: [19] 97 % of control | [20] 96 % of control | [21] 96 % of control | [22] 96 % of control | [23] 104 % of control

C=C(Br)CN(C)C(C)=O
inactive: [19] 98 % of control | dose: 6.25 mg/kg/injection, schedule: Q04DX003 (ip), vehicle: saline 101 % of control | [20] 98 % of control | [21] 106 % of control | [22] 93 % of control | [23] 98 % of control

O=C(O)c1ccccc1C(=O)Nc1cccc2ccccc12
inactive: [18] 88 % of control | dose: 200.0 mg/kg/injection, schedule: Q04DX002 (ip), vehicle: Klucel (hydroxypropylcellulose) (HPC) 104 % of control

C[Se]c1ncnc2c1c(C#N)cn2C1OC(CO)C(O)C1O (centres undefined)
inactive: dose: 12.5 mg/kg/injection, schedule: Q01DX005 (ip), vehicle: saline 123 % of control | [20] 120 % of control | [22] 124 % of control | dose: 50.0 mg/kg/injection, schedule: Q01DX005 (ip), vehicle: saline 120 % of control | [24] 94 % of control

O=C(O)c1ccccc1[N+](=O)[O-].[Ag]
inactive: dose: 12.5 mg/kg/injection, schedule: Q04DX003 (ip), vehicle: saline with Tween-80 90 % of control | [2] 107 % of control | [4] 91 % of control

Nc1nccnc1N
inactive: [24] 103 % of control | [25] 102 % of control | [13] 105 % of control | [26] 96 % of control

CN(C)/C=N\c1c(C#N)c(CC#N)nn1-c1ccccc1
inactive: [1] 98 % of control | [2] 103 % of control | [3] 100 % of control | [4] 93 % of control | [6] 88 % of control | [5] 98 % of control and 99 % of control

C[C@]12CC[C@@H]3c4ccc(OCC(=O)O)cc4CC[C@H]3[C@@H]1CCC2=O
inactive: dose: 75.0 mg/kg/injection, schedule: Q01DX009 (ip), vehicle: Klucel (hydroxypropylcellulose) (HPC) 97 % of control | dose: 150.0 mg/kg/injection, schedule: Q01DX009 (ip), vehicle: Klucel (hydroxypropylcellulose) (HPC) 90 % of control

CS(=O)(=O)OCCN(CCOS(C)(=O)=O)c1ccc(C=Nc2cc(Br)c(O)c(Br)c2)c(Cl)c1
inactive: [8] 98 % of control | [9] 98 % of control | [10] 97 % of control

CC(CN)NCc1ccccc1 (centres undefined)
inactive: [13] 96 % of control | [11] 103 % of control | [14] 94 % of control | [12] 103 % of control | [15] 95 % of control

Cc1c(Cl)cccc1NC(=S)NC(=O)c1ccccc1
inactive: [27] 110 % of control | [28] 100 % of control | dose: 400.0 mg/kg/injection, schedule: Q04DX002 (ip), vehicle: saline with Tween-80 89 % of control

CCOC(=O)NN(C(=O)OCC)c1c(NNC(C)=O)nc(N)[nH]c1=O
inactive: [25] 99 % of control | [26] 92 % of control | dose: 400.0 mg/kg/injection, schedule: Q01DX001 (ip), vehicle: saline 99 % of control

CC(C)(C)C(O)C1CCCS1(=O)=O (centres undefined)
inactive: dose: 50.0 mg/kg/injection, schedule: Q01DX001 (ip), vehicle: Klucel (hydroxypropylcellulose) (HPC) 96 % of control

COc1cc2c(c(OC)c1OC)c(=O)c1ccccc1n2C
inactive: dose: 50.0 mg/kg/injection, schedule: Q01DX Z (ip), vehicle: carboxymethylcellulose (CMC) 97 % of control | dose: 100.0 mg/kg/injection, schedule: Q01DX Z (ip), vehicle: carboxymethylcellulose (CMC) 103 % of control | dose: 200.0 mg/kg/injection, schedule: Q01DX Z (ip), vehicle: carboxymethylcellulose (CMC) 101 % of control

COc1cc(C(C)S(=O)(=O)c2ccccc2)ccc1O (centres undefined)
inactive: dose: 100.0 mg/kg/injection, schedule: Q01DX001 (ip), vehicle: carboxymethylcellulose (CMC) 97 % of control | dose: 200.0 mg/kg/injection, schedule: Q01DX001 (ip), vehicle: carboxymethylcellulose (CMC) 97 % of control | dose: 400.0 mg/kg/injection, schedule: Q01DX001 (ip), vehicle: carboxymethylcellulose (CMC) 103 % of control

OC1(C#CI)CCCCC1
inactive: dose: 100.0 mg/kg/injection, schedule: Q01DX009 (ip), vehicle: Klucel (hydroxypropylcellulose) (HPC) 100 % of control | dose: 200.0 mg/kg/injection, schedule: Q01DX009 (ip), vehicle: Klucel (hydroxypropylcellulose) (HPC) 96 % of control

C/C=C\C(=O)OCC(C)CCC (centres undefined)
inactive: [27] 97 % of control | [28] 102 % of control

CCN(CCOC(=O)Nc1ccccc1F)c1ccccc1
inactive: [6] 98 % of control | [16] 115 % of control | dose: 400.0 mg/kg/injection, schedule: Q01DX009 (ip), vehicle: saline with Tween-80 112 % of control
